Measured values reported in the RepoRT retention time repository (doi:10.1021/acs.analchem.2c02893).

Assay: RP, Thermo Scientific Acclaim RSLC 120 C18, 100 × 2.1 mm, 2.2 µm, 30 °C, 0.2 mL/min, estimated dead time 1.1 min; A: 90% water + 10% methanol + 0.01% formic acid + 5 mM ammonium formate, pH 3.61; B: methanol + 0.01% formic acid + 5 mM ammonium formate, pH 3.61; gradient (min/%B) 0/1 1/1 2/39 13/99.9 15/99.9 15.1/1 20.1/1
Details: stereoisomer not certain

Row | Compound | LC retention time
1 | Cc1ccc(C(=O)c2cn(CCCCCO)c3ccccc23)c2ccccc12 [JWH-122-M-N-5-OH-Pentyl] | 10.6 min
2 | COc1nc(C)nc(NC(=O)NS(=O)(=O)c2ccccc2Cl)n1 [Chlorsulfuron] | 6.54 min
3 | COC(=O)C(NC(=O)c1nn(Cc2ccc(F)cc2)c2ccccc12)C(C)C (configuration not stated) [FUB-AMB] | 10.8 min
4 | CN(C)C1C(=O)C(C(N)=O)=C(O)C2(O)C(=O)C3=C(O)c4c(O)cccc4C(C)(O)C3C(O)C12 (configuration not stated) [Oxytetracycline] | 4.6 min
5 | COC(C)C(O)(C(=O)OCC1=CCN2CCC(O)C12)C(C)C (configuration not stated) [Heliotrine] | 4.27 min
6 | COC(=O)c1ccccc1S(=O)(=O)NC(=O)Nc1nc(C)nc(OC)n1 [Metsulfuron-methyl] | 6.31 min
7 | COC(=O)C(NC(=O)c1nn(CC2CCCCC2)c2ccccc12)C(C)C (configuration not stated) [MA-CHMINACA] | 12.4 min
8 | COC=C(C(=O)OC)c1ccccc1COc1cc(C(F)(F)F)nc(OC(C)C)n1 [Fluacrypyrim] | 11.5 min
9 | CC1(C)C(C(=O)c2cn(Cc3ccc(F)cc3)c3ccccc23)C1(C)C [FUB-144] | 12.2 min
10 | Nc1c(Cl)cc([N+](=O)[O-])cc1Cl [Dicloran] | 8.84 min
11 | Fc1ccc(Oc2ccnc3cc(Cl)cc(Cl)c23)cc1 [Quinoxyphen] | 12.8 min
12 | CNC(=O)ON=C(C)C(C)S(C)(=O)=O (configuration not stated) [Butoxycarboxim] | 3.66 min
13 | CC(C(=O)c1ccc2c(c1)OCO2)N(C)C (configuration not stated) [MDDMA-bk] | 3.78 min
14 | CCNc1nc(Cl)nc(NCC)n1 [Simazine] | 7.07 min
15 | COC(C)C(O)(C(=O)OCC1=CC[N+]2([O-])CCC(O)C12)C(C)C (configuration not stated) [Heliotrine-N-oxide] | 3.49 min
16 | CNC(=O)N(C)c1nc2ccccc2s1 [Methabenzthiazuron] | 8.26 min
17 | CC(C)C(Nc1ccc(C(F)(F)F)cc1Cl)C(=O)OC(C#N)c1cccc(Oc2ccccc2)c1 (configuration not stated) [Fluvalinate (tau-)] | 13.5 min
18 | C[Si](Cn1cncn1)(c1ccc(F)cc1)c1ccc(F)cc1 [Flusilazole] | 10.5 min
19 | N=C1NC(=O)C(c2ccccc2)O1 (configuration not stated) [Pemoline] | 4.34 min
20 | O=C(c1cccc2ccccc12)c1cn(CCN2CCOCC2)c2ccccc12 [JWH-200] | 9.88 min
21 | COc1ccc(CC(C)N)c(OC)c1OC (configuration not stated) [TMA] | 4.16 min
22 | Clc1ccc(C(OCCN2CCCCC2)c2ccccc2)cc1 (configuration not stated) [Cloperastine] | 8.46 min
23 | COC(=O)CCCOc1ccc(Cl)cc1Cl [2.4-DB-methylester] | 11.3 min
24 | CCOC(=O)CCN(Cc1ccccc1)SN(C)C(=O)ON=C(C)SC [Alanycarb] | 10.8 min
25 | COC(C)(C)CCCC(C)CC=CC(C)=CC(=O)OC(C)C (configuration not stated) [Methoprene] | 13.6 min
26 | CC(NC(C)(C)C)C(=O)c1cccc(Cl)c1 (configuration not stated) [Bupropion] | 5.76 min
27 | CCNC(C)C(=O)c1ccccc1 (configuration not stated) [Cathinone-Ethyl] | 3.93 min
28 | COc1ccc(C(=O)c2cn(CCCCCO)c3ccccc23)cc1 [RCS-4-M-5-OH-Pentyl] | 9.18 min

Further lines, results first:

Row | LC retention time | Compound
29 | 3.98 min | CCCN(CCC)CCc1cccc2c1CC(=O)N2 [Ropinirole]
30 | 6.58 min | CC(C)(C)NCC(O)COc1ccc(NC(=O)NC2CCCCC2)cc1 (configuration not stated) [Talinolol]
31 | 2.43 min | Nc1ncnc2nc[nH]c12 [Adenine]
32 | 3.34 min | CC(=O)Nc1ccc(OCC(O)CNC(C)C)cc1 (configuration not stated) [Practolol]
33 | 8.11 min | Cc1cnc(C(=O)NCCc2ccc(S(=O)(=O)NC(=O)NC3CCCCC3)cc2)cn1 [Glipizide]
34 | 10.6 min | CCc1cccc2c3c([nH]c12)C(CC)(CC(=O)O)OCC3 (configuration not stated) [Etodolac]
35 | 12.2 min | CCOCCOC(=O)C(C)Oc1ccc(Oc2ncc(C(F)(F)F)cc2Cl)cc1 (configuration not stated) [Haloxyfop ethoxyethyl ester]
36 | 10.1 min | OC1(c2ccc(Cl)c(C(F)(F)F)c2)CCN(CCCC(c2ccc(F)cc2)c2ccc(F)cc2)CC1 [Penfluridol]
37 | 4.21 min | CC(CCc1ccc(O)cc1)NCCc1ccc(O)c(O)c1 (configuration not stated) [Dobutamine]
38 | 2.54 min | CNCC(O)c1cccc(NS(C)(=O)=O)c1 (configuration not stated) [Amidephrine]
39 | 8.37 min | [O-][n+]1nc(-n2ccnc2)nc2ccc(Cl)cc21 [Triazoxide]
40 | 9.24 min | CC(=O)SC1CC2=CC(=O)CCC2(C)C2CCC3(C)C(CCC34CCC(=O)O4)C12 (configuration not stated) [Spironolactone]
41 | 8.38 min | CN1CCN(CCC=C2c3ccccc3Sc3ccc(S(=O)(=O)N(C)C)cc32)CC1 [Thiothixene]
42 | 7.42 min | O=C(CCCN1CCC(O)(c2cccc(C(F)(F)F)c2)CC1)c1ccc(F)cc1 [Trifluperidol]
43 | 12.6 min | CC(C)OC(=O)C(C)(C)Oc1ccc(C(=O)c2ccc(Cl)cc2)cc1 [Fenofibrate]
44 | 10.2 min | COC(=O)C(Cl)Cc1ccc(Cl)cc1 (configuration not stated) [Chlorfenprop-methyl]
45 | 2.62 min | S=c1nc[nH]c2nc[nH]c12 [6-Mercaptopurine]

Row | LC retention time | Compound
46 | 3.83 min | Clc1cccc(Cl)c1NC1=NCCN1 [Clonidine]
47 | 11.2 min | CC(=O)OCC(=O)C12OC3(CCCC3)OC1CC1C3CCC4=CC(=O)C=CC4(C)C3(F)C(O)CC12C (configuration not stated) [Amcinonide]
48 | 7.18 min | COc1ccc(C2Sc3ccccc3N(CCN(C)C)C(=O)C2OC(C)=O)cc1 (configuration not stated) [Diltiazem]
49 | 8.23 min | CCOC(=O)C(CCc1ccccc1)NC(C)C(=O)N1CC2(CC1C(=O)O)SCCS2 (configuration not stated) [Spirapril]
50 | 4.78 min | CCCC(=O)Nc1ccc(OCC(O)CNC(C)C)c(C(C)=O)c1 (configuration not stated) [Acebutolol]
51 | 7.54 min | COc1cc(C(=O)OCCCN(C)CCN(C)CCCOC(=O)c2cc(OC)c(OC)c(OC)c2)cc(OC)c1OC [Hexobendine]
52 | 9.98 min | COc1ccc(Cl)cc1C(=O)NCCc1ccc(S(=O)(=O)NC(=O)NC2CCCCC2)cc1 [Glibenclamide]
53 | 11.8 min | CCCCCCCCCCCCCCN(C)C [N,N-Dimethyltetradecylamine]
54 | 12.2 min | CCOc1nc2cccc(C(=O)OC(C)OC(=O)OC3CCCCC3)c2n1Cc1ccc(-c2ccccc2-c2nn[nH]n2)cc1 (configuration not stated) [Candesartan cilexetil]
55 | 9.04 min | CCOc1ccc(NC(=O)OC(C)C)cc1OCC [Diethofencarb]
56 | 1.58 min | CCOS(=O)(=O)O [Ethyl Sulphate (NH4)]
57 | 14.1 min | C=C(c1ccc(C(=O)O)cc1)c1cc2c(cc1C)C(C)(C)CCC2(C)C [Bexarotene]
58 | 5.63 min | CCC(=O)C1C(=O)CC(C(=O)O)CC1=O (configuration not stated) [Prohexadione]
59 | 6.59 min | Cc1ccc(C2(O)CCN(CCCC(=O)c3ccc(F)cc3)CC2)cc1 [Moperone]
60 | 10.4 min | O=C(O)Cc1cn(-c2ccccc2)nc1-c1ccc(Cl)cc1 [Lonazolac]
61 | 6.44 min | O=C(NCC1CCCCN1)c1cc(OCC(F)(F)F)ccc1OCC(F)(F)F (configuration not stated) [Flecainide]
62 | 9.2 min | O=C(O)COC(=O)Cc1ccccc1Nc1c(Cl)cccc1Cl [Aceclofenac]
